Assay [1] concerns HEK293 cells cotransfected with the FOP control vector. The assay can be described thus: HEK293 FOP assay (control reporter with non-functional TCF elements). The class given is cell-based. Conditions: 16 hours. In a few lines:
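Compound series from 50 μM down to 15 nM, prediluted in DMSO then 50-fold into CAFTY buffer (pH 7.4, 2 mM Ca2+, 0.01% BSA), tested alongside TOP cells on a Geneticin-selected HEK293 FOP line whose TCF elements are replaced by a random sequence; recombinant human Wnt-3a applied at 2500-5 ng/ml.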

The target of a further assay is T1, TNKS1 (Homo sapiens, UniProt O95271).
T1 construct: purchased BPS Bioscience, San Diego, USA 80579 (TNKS1 Histone Ribosylation Assay Kit)
T1 sequence (O95271 1-1327): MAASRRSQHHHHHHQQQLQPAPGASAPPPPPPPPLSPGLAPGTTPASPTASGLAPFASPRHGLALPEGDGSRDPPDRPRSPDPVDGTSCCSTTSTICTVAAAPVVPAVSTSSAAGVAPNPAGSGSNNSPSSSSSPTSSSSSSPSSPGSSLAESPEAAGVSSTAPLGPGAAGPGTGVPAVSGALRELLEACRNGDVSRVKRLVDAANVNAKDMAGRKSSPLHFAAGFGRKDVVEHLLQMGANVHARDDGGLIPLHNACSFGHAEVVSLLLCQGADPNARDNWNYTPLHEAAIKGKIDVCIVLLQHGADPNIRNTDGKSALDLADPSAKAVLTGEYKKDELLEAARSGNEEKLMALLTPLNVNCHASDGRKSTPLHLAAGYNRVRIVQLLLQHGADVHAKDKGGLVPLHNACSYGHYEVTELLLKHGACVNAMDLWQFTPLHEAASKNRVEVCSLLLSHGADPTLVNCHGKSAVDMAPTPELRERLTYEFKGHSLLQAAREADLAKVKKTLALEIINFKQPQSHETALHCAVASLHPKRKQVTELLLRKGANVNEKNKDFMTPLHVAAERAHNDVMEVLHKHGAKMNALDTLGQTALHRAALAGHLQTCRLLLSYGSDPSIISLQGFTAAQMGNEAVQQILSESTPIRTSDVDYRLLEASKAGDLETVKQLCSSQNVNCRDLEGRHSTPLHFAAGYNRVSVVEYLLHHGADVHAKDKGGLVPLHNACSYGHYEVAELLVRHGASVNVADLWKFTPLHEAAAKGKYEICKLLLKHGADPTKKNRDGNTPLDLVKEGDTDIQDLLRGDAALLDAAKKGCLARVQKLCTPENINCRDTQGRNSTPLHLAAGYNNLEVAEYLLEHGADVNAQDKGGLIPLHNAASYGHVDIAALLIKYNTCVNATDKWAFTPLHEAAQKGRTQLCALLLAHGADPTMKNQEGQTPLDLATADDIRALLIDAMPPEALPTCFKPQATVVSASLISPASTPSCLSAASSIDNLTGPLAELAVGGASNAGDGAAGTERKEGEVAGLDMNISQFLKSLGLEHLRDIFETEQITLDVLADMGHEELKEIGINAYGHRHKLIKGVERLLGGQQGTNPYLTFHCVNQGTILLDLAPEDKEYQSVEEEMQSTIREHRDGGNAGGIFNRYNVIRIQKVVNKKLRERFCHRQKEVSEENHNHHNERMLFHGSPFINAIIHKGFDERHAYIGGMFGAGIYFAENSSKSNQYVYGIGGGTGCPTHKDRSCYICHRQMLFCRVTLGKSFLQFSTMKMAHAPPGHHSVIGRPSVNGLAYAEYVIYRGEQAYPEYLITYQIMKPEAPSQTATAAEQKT
The assay can be described thus: TNKS1 Assay B (auto-parsylation, [3H]-NAD+ SPA). The assay is classed as biochemical. Conditions: 6 nM TNKS1, auto-parsylation, over night at room temperature. The procedure: The potency of selected compounds according to the invention was assessed applying a modified in vitro inhibition assay. Here, the TNKS1 catalyzed NAD^+-dependent ribosylation of the enzyme itself (auto-parsylation) was detected using [^3H]-NAD^+ as substrate and applying the scintillation proximity assay (SPA) method to detect tritium-labeled, parsylated TNKS1. The intensity of the readout signal is proportional to the incorporated [^3H]-NAD^+. Inhibition of TNKS1 leads to a decreased incorporation of [^3H]-NAD^+ and consequently to a lower readout signal intensity. The concentration of a test compound which inhibits the enzyme activity by 50% (corresponds to half of the normed readout signal intensity) is reported as IC50.
Protocol Auto-Parsylation Assay
The assay was conducted in a 96 well MTP format with the identical TNKS1 enzyme sample and NAD^+ sample as in the histone ribosylation assay with the following modifications: TNKS1 enzyme sample was diluted with a modified assay buffer (50 mM MES pH 7.0, 1 mM DTT, 0.01% Triton X-100) to a final concentration of 6 nM TNKS1 and 10×NAD^+ solution was diluted with the modified assay buffer (s. above) to a final 0.445×NAD^+ solution doped with 100 Bq/μl [^3H]-NAD^+[Catalog #NET443H050UC, Perkin Elmer, Waltham, Mass., USA]. Substrate solution (10 μl) was incubated with different test compound concentrations (2.5 ul in 10% DMSO in modified assay buffer) or control (2.5 ul 10% DMSO in modified assay buffer only) and enzyme (10 μl) over night at room temperature. Incorporated tritium was measured after addition of 50 μl SPA beads (1 mg/ml) [Catalog #RPNQ0095 20 mg/ml, Perkin Elmer, Waltham, Mass., USA; diluted 1:10 with Dulbecco's phosphate buffered saline, PBS Catalog #D8537, Sigma-Aldrich, Steinheim, Germany] and detection of the photon emission with a beta count plate reader [Wallac MicroBeta®, Perkin Elmer, Waltham, Mass., USA].

Each structure is given as a SMILES string.

Take `O=C(NCC1CCCO1)c1nc[nH]c1C(=O)N[C@H]1CC[C@H](C(=O)Nc2cc(C(F)(F)F)ccc2Cl)CC1` (stereo partly drawn) [Example 146, N^5-(trans-4-{[2-chloro-5-(trifluoromethyl)phenyl]carbamoyl}cyclohexyl)-N^4-(tetrahydrofuran-2-ylmethyl)-1H-imidazole-4,5-dicarboxamide]: the values for the half-maximal inhibitory concentration (IC50) (in assay [1] (Homo sapiens); against TNKS1) were 29 µM and 0.15 µM, respectively.

For `Cc1cc(C)n2ncc(C(=O)NC34CCC(C(=O)Nc5c(F)cc(F)cc5Cl)(CC3)CC4)c2n1` [Example 127, N-{4-[(2-chloro-4,6-difluorophenyl)carbamoyl]bicyclo[2.2.2]oct-1-yl}-5,7-dimethylpyrazolo[1,5-a]pyrimidine-3-carboxamide], the IC50 – broadly, the concentration at which inhibition is half-maximal – is not below 50 µM in assay [1] (Homo sapiens) and 0.32 µM against TNKS1.

Take `O=C(N[C@H]1CC[C@H](C(=O)Nc2cc(F)c(F)cc2Cl)CC1)c1cnc2cccnn12` [Example 132, N-{trans-4-[(2-chloro-4,5-difluorophenyl)carbamoyl]cyclohexyl}imidazo[1,2-b]pyridazine-3-carboxamide]: the IC50 in assay [1] (Homo sapiens) is not below 50 µM; on TNKS1, 0.064 µM.

Regarding `COCc1cc(C)n2ncc(C(=O)N[C@H]3CC[C@H](C(=O)Nc4ccc(F)cc4Cl)CC3)c2n1` [Example 110, N-{trans-4-[(2-chloro-4-fluorophenyl)carbamoyl]cyclohexyl}-5-(methoxymethyl)-7-methylpyrazolo[1,5-a]pyrimidine-3-carboxamide], the IC50 is not below 50 µM in assay [1] (Homo sapiens) and 0.31 µM against TNKS1.

Regarding `CCN(c1ccc(F)cc1Cl)C(=O)[C@H]1CC[C@H](NC(=O)c2cnn3cccnc23)CC1` [Example 154, N-{trans-4-[(2-chloro-4-fluorophenyl)(ethyl)carbamoyl]cyclohexyl}pyrazolo[1,5-a]pyrimidine-3-carboxamide], the IC50 in assay [1] (Homo sapiens) is not below 50 µM; against TNKS1, 0.087 µM.

Take `CC(C)(O)CNC(=O)c1nc[nH]c1C(=O)N[C@H]1CC[C@H](C(=O)Nc2cc(N3CCOCC3)ccc2Cl)CC1` [Example 94, N^5-(trans-4-{[2-chloro-5-(morpholin-4-yl)phenyl]carbamoyl}cyclohexyl)-N^4-(2-hydroxy-2-methylpropyl)-1H-imidazole-4,5-dicarboxamide]: the IC50 in assay [1] (Homo sapiens) was not below 50 µM; against TNKS1, 1.3 µM.

On to `O=C(N[C@H]1CC[C@]2(CCN(c3ccc(F)cc3Cl)C2=O)CC1)c1cnn2cccnc12` [Example 148, N-[(cis)-2-(2-chloro-4-fluorophenyl)-1-oxo-2-azaspiro[4.5]dec-8-yl]pyrazolo[1,5-a]pyrimidine-3-carboxamide], for which the IC50 in assay [1] (Homo sapiens) was not below 50 µM; against TNKS1, 3.9 µM.

`CNC(=O)c1nc[nH]c1C(=O)N[C@H]1CC[C@H](C(=O)Nc2ccc(F)cc2Br)CC1` [Example 7, N^5-{trans-4-[(2-bromo-4-fluorophenyl)carbamoyl]cyclohexyl}-N^4-methyl-1H-imidazole-4,5-dicarboxamide]: the concentration for half-maximal inhibition (IC50) in assay [1] (Homo sapiens) was not below 50 µM; on TNKS1, 0.024 µM.

Regarding `O=C(N[C@H]1CC[C@H](C(=O)Nc2cnc(C(F)(F)F)cc2Cl)CC1)c1cnn2cccnc12` [Example 149, N-(trans-4-{[4-chloro-6-(trifluoromethyl)pyridin-3-yl]carbamoyl}cyclohexyl)pyrazolo[1,5-a]pyrimidine-3-carboxamide], the figures for the IC50 (in assay [1] (Homo sapiens); at TNKS1) were not below 50 µM and 0.29 µM, respectively.

Turning to `Cc1cc(NC(=O)[C@H]2CC[C@H](NC(=O)c3cnn4cccnc34)CC2)c(Cl)cc1F` [Example 150, N-{trans-4-[(2-chloro-4-fluoro-5-methylphenyl)carbamoyl]cyclohexyl}pyrazolo[1,5-a]pyrimidine-3-carboxamide], the results for the IC50 (in assay [1] (Homo sapiens); against TNKS1) were not below 50 µM and 0.17 µM, respectively.

Take `Cc1cc(C)n2ncc(C(=O)NC34CCC(C(=O)Nc5cnccc5Cl)(CC3)CC4)c2n1` [Example 128, N-{4-[(4-chloropyridin-3-yl)carbamoyl]bicyclo[2.2.2]oct-1-yl}-5,7-dimethylpyrazolo[1,5-a]pyrimidine-3-carboxamide]: the IC50 is not below 50 µM in assay [1] (Homo sapiens) and 0.088 µM at TNKS1.

As for `CN(c1ccccc1)C(=O)[C@H]1CC[C@H](NC(=O)c2cnn3cccnc23)CC1` [Example 156, N-{trans-4-[methyl(phenyl)carbamoyl]cyclohexyl}pyrazolo[1,5-a]pyrimidine-3-carboxamide], the half-inhibitory concentration (IC50) in assay [1] (Homo sapiens) is not below 50 µM; against TNKS1, 0.39 µM.

In the case of `CCOC(=O)c1cnc2c(C(=O)N[C@H]3CC[C@H](C(=O)Nc4ccc(F)cc4Cl)CC3)cnn2c1` [Example 106, ethyl 3-({trans-4-[(2-chloro-4-fluorophenyl)carbamoyl]cyclohexyl}carbamoyl)pyrazolo[1,5-a]pyrimidine-6-carboxylate], the IC50 in assay [1] (Homo sapiens) is not below 50 µM; on TNKS1 it was 0.049 µM.

With `Cc1cc(C)n2ncc(C(=O)N[C@H]3CC[C@H](C(=O)Nc4ccncc4Cl)CC3)c2n1` [Example 102, N-{trans-4-[(3-chloropyridin-4-yl)carbamoyl]cyclohexyl}-5,7-dimethylpyrazolo[1,5-a]pyrimidine-3-carboxamide], the figures for the IC50 (in assay [1] (Homo sapiens); on TNKS1) were not below 50 µM and 0.33 µM, respectively.

Turning to `CNC(=O)c1[nH]cnc1C(=O)NC1CCC(C(=O)Nc2ccc(F)cc2Cl)CC1OC` (stereo not drawn) [Example 36, N^4-{(1α,2β,4β)-4-[(2-chloro-4-fluorophenyl)carbamoyl]-2-methoxycyclohexyl}-N^5-methyl-1H-imidazole-4,5-dicarboxamide], the 50% inhibitory concentration (IC50) in assay [1] was not below 50 µM; against TNKS1, more than 10 µM.

For `O=C(NC12CCC(C(=O)Nc3c(F)cc(F)cc3Cl)(CC1)CC2)c1cnc2cccnn12` [Example 123, N-{4-[(2-chloro-4,6-difluorophenyl)carbamoyl]bicyclo[2.2.2]oct-1-yl}imidazo[1,2-b]pyridazine-3-carboxamide], the IC50 was not below 50 µM in assay [1] (Homo sapiens) and 1 µM against TNKS1.

`O=C(NCC1CCCO1)c1nc[nH]c1C(=O)N[C@H]1CC[C@H](C(=O)Nc2cnccc2Cl)CC1` (stereo partly drawn) [Example 97, N^5-{trans-4-[(4-chloropyridin-3-yl)carbamoyl]cyclohexyl}-N^4-(tetrahydrofuran-2-ylmethyl)-1H-imidazole-4,5-dicarboxamide]: the IC50 in assay [1] (Homo sapiens) is 18 µM; against TNKS1, 0.045 µM.

Turning to `CNC(=O)c1nc[nH]c1C(=O)N[C@H]1CC[C@H](C(=O)Nc2c(F)cc(F)cc2Cl)CC1` [Example 6, N^5-{trans-4-[(2-chloro-4,6-difluorophenyl)carbamoyl]cyclohexyl}-N^4-methyl-1H-imidazole-4,5-dicarboxamide], the IC50 in assay [1] (Homo sapiens) was not below 50 µM; at TNKS1, 0.077 µM.

These data come from US20180148418A1, “AMIDO-SUBSTITUTED CYCLOHEXANE DERIVATIVES” (Bayer Pharma Aktiengesellschaft, priority 2015, published 2018).
